This is an account of results in paper PMC4578295 (Chemistry & biology, 2015).

In the assay the target is T1, KDM4B (Homo sapiens, UniProt O94953).
T1 sequence (O94953 1-500): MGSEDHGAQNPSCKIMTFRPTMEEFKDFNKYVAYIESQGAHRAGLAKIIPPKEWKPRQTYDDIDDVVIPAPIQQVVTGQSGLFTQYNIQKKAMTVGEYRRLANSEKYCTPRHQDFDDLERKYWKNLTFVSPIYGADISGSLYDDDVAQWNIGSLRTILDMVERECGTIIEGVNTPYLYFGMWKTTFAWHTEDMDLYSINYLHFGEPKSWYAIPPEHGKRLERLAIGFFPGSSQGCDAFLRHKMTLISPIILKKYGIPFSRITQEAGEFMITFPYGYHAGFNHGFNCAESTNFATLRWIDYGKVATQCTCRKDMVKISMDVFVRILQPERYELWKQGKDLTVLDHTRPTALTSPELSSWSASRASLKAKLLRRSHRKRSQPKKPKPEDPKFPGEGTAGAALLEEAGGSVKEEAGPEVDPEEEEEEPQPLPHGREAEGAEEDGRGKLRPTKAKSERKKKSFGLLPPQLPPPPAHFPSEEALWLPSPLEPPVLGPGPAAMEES
Description: 1H-15N TROSY-HSQC NMR shifts. Format: biochemical.

For orientation: IC50 means the concentration at which inhibition is half-maximal. Take `O=C(NCCCc1ccccc1)c1cccc(-c2cc(O)c3ncccc3c2)c1` [B3, NCGC00244536]: the IC50 is ~10 nM.
